Measured values from BindingDB's records for doi:10.1016/j.bmcl.2006.10.059 (Merck Research Laboratories, 2007).

Test: Inhibition of MCP1-stimulated chemotaxis in monocytes transfected with human CCR2

Compound | IC50 [nM]
CC(=O)Nc1nc([C@@H](CCN2CCC3(C=Cc4ccccc43)CC2)C(=O)NCc2cc(C(F)(F)F)cc(C(F)(F)F)c2)cs1 [(2R)-N-{[3,5-bis(trifluoromethyl)phenyl]methyl}-2-(2-acetamido-1,3-thiazol-4-yl)-4-{spiro[indene-1,4'-piperidine]-1'-yl}butanamide] | 27
CC(=O)Nc1nc([C@H](CCN2CCC3(C=Cc4ccccc43)CC2)C(=O)NCc2cc(C(F)(F)F)cc(C(F)(F)F)c2)cs1 [(2S)-N-{[3,5-bis(trifluoromethyl)phenyl]methyl}-2-(2-acetamido-1,3-thiazol-4-yl)-4-{spiro[indene-1,4'-piperidine]-1'-yl}butanamide] | 5.3
CNC(=O)Nc1nc([C@@H](CCN2CCC(c3ccccc3)CC2)C(=O)NCc2cc(C(F)(F)F)cc(C(F)(F)F)c2)cs1 [(R)-1-(4-(1-(3,5-bis(trifluoromethyl)benzylamino)-1-oxo-4-(4-phenylpiperidin-1-yl)butan-2-yl)thiazol-2-yl)-3-methylurea] | 87
CNC(=O)Nc1nc([C@H](CCN2CCC(c3ccccc3)CC2)C(=O)NCc2cc(C(F)(F)F)cc(C(F)(F)F)c2)cs1 [(S)-1-(4-(1-(3,5-bis(trifluoromethyl)benzylamino)-1-oxo-4-(4-phenylpiperidin-1-yl)butan-2-yl)thiazol-2-yl)-3-methylurea] | 1.8
CC(=O)Nc1nc([C@H](CCN2CCC(c3ccccc3)CC2)C(=O)NCc2cc(C(F)(F)F)cc(C(F)(F)F)c2)cs1 [(S)-N-(3,5-bis(trifluoromethyl)benzyl)-2-(2-acetamidothiazol-4-yl)-4-(4-phenylpiperidin-1-yl)butanamide] | 0.7
CC(=O)Nc1nc(C(CCN2CCC3(C=Cc4ccccc43)[C@@H](C)C2)C(=O)NCc2cc(C(F)(F)F)cc(C(F)(F)F)c2)cs1 (stereo partly drawn) [N-{[3,5-bis(trifluoromethyl)phenyl]methyl}-2-(2-acetamido-1,3-thiazol-4-yl)-4-[(5'R)-5'-methylspiro[indene-1,4'-piperidine]-1'-yl]butanamide] | 0.6
CC(=O)Nc1nc(C(CCN2CCC3(C=Cc4ccccc43)CC2)C(=O)NCc2cc(C(F)(F)F)cc(C(F)(F)F)c2)cs1 (configuration not stated) [N-{[3,5-bis(trifluoromethyl)phenyl]methyl}-2-(2-acetamido-1,3-thiazol-4-yl)-4-{spiro[indene-1,4'-piperidine]-1'-yl}butanamide] | 0.7
